{
  "source": "ChEMBL document CHEMBL4765337",
  "about": "“Optical control of muscular nicotinic channels with azocuroniums, photoswitchable azobenzenes bearing two N-methyl-N-carbocyclic quaternary ammonium groups” (Eur J Med Chem, 2020)",
  "note": "Calls of active or inactive are those of the source. The rule behind the calls is not given here.",
  "data": [
    {"biological_target": "not listed separately", "experiment": "Antagonist activity at rat alpha1beta1gamma1delta1 nAChR expressed in Xenopus laevis oocytes assessed as inhibition of ACh puff-induced maximum channel current amplitude measured at holding potential of -60 mV by two-electrode voltage clamp technique", "assay_type": "cell-based", "settings": "oocyte", "units": {"Ki": "nM"}, "values": [
      {"smiles": "C[N+]1(Cc2cccc(/N=N/c3cccc(C[N+]4(C)CCCCC4)c3)c2)CCCCC1.[I-].[I-]", "Ki": 460},
      {"smiles": "C[N+]1(Cc2cccc(/N=N/c3cccc(C[N+]4(C)CCCCCC4)c3)c2)CCCCCC1.[I-].[I-]", "Ki": 300},
      {"smiles": "C[N+]1(Cc2cccc(/N=N/c3cccc(C[N+]4(C)CC=CCC4)c3)c2)CC=CCC1.[I-].[I-]", "note": "(configuration not stated)", "Ki": 840}
    ]},
    {"biological_target": "T1, Neuronal acetylcholine receptor subunit alpha-7 (Homo sapiens, UniProt P36544)", "T1 sequence (P36544 whole entry)": "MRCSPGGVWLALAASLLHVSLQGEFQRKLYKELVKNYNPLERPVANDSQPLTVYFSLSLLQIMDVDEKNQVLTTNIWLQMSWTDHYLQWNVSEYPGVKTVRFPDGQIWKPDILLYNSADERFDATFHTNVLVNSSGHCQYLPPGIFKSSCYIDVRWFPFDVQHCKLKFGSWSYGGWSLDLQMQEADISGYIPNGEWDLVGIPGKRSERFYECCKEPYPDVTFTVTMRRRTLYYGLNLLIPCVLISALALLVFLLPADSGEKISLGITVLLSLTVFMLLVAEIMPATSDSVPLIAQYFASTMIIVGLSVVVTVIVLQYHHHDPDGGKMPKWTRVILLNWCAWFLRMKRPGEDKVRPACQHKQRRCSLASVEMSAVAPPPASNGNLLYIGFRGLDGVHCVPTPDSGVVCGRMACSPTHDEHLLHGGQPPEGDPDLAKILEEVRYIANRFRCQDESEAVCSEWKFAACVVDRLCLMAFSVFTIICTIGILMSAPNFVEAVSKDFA", "experiment": "Displacement of [125I] alpha bungarotoxin from human neuronal alpha7 nAChR expressed in human SH-SY5Y cell membrane measured after 120 mins by Topcount scintillation counting method", "assay_type": "cell membranes", "settings": "not given", "units": {"Ki": "nM"}, "values": [
      {"smiles": "Clc1ccc([C@H]2C[C@@H]3CC[C@H]2N3)cn1", "note": "[(-)-EPIBATIDINE]", "Ki": 120},
      {"smiles": "C[N+]1(Cc2cccc(/N=N/c3ccccc3)c2)CCCCC1.[I-]", "Ki": "> 10000"},
      {"smiles": "C[N+]1(Cc2cccc(/N=N/c3cccc(C[N+]4(C)CCCCC4)c3)c2)CCCCC1.[I-].[I-]", "Ki": 910},
      {"smiles": "C[N+]1(Cc2cccc(/N=N/c3cccc(C[N+]4(C)CCCCCC4)c3)c2)CCCCCC1.[I-].[I-]", "Ki": 1900},
      {"smiles": "C[N+]1(Cc2cccc(/N=N/c3cccc(C[N+]4(C)CC=CCC4)c3)c2)CC=CCC1.[I-].[I-]", "note": "(configuration not stated)", "Ki": 730}
    ]},
    {"biological_target": "T2, Neuronal acetylcholine receptor; alpha4/beta2 (Homo sapiens, UniProt P17787+P43681)", "T2 sequence (P17787 whole entry)": "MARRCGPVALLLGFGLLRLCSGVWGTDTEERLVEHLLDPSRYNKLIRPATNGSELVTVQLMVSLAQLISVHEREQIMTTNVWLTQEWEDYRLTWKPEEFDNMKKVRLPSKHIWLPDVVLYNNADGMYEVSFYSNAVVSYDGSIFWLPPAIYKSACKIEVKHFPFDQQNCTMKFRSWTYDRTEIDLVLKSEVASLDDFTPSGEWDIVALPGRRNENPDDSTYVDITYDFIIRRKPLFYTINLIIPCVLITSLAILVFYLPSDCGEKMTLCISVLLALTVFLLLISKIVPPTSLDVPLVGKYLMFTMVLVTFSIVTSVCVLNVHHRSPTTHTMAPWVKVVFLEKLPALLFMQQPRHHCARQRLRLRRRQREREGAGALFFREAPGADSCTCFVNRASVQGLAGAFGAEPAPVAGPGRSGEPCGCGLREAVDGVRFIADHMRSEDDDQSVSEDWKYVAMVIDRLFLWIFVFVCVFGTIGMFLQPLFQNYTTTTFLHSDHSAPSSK", "T2 sequence (P43681 whole entry)": "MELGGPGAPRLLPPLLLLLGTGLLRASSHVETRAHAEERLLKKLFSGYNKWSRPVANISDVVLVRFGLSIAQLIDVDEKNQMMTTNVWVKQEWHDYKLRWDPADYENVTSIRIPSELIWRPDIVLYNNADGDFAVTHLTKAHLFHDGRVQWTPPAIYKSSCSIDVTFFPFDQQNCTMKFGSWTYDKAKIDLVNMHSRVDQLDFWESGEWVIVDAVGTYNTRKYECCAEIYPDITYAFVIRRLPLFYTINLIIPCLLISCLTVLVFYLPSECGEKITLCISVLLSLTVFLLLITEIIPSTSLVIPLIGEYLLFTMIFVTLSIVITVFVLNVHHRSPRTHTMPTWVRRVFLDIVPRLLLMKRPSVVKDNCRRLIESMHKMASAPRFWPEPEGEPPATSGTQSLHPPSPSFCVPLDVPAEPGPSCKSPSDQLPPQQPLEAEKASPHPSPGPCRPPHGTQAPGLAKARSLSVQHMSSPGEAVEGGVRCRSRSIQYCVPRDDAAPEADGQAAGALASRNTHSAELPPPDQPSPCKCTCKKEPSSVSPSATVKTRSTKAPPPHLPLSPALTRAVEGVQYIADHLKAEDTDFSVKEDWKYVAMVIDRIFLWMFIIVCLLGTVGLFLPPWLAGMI", "experiment": "Displacement of [125I] alpha bungarotoxin from human neuronal alpha4beta2 nAChR expressed in human SH-SY5Y cell membrane measured after 120 mins by Topcount scintillation counting method", "assay_type": "cell membranes", "settings": "not given", "units": {"Ki": "nM"}, "values": [
      {"smiles": "C[N+]1(Cc2cccc(/N=N/c3ccccc3)c2)CCCCC1.[I-]", "Ki": "> 10000"},
      {"smiles": "C[N+]1(Cc2cccc(/N=N/c3cccc(C[N+]4(C)CCCCC4)c3)c2)CCCCC1.[I-].[I-]", "Ki": "> 10000"},
      {"smiles": "C[N+]1(Cc2cccc(/N=N/c3cccc(C[N+]4(C)CCCCCC4)c3)c2)CCCCCC1.[I-].[I-]", "Ki": "> 10000"},
      {"smiles": "C[N+]1(Cc2cccc(/N=N/c3cccc(C[N+]4(C)CC=CCC4)c3)c2)CC=CCC1.[I-].[I-]", "note": "(configuration not stated)", "Ki": "> 10000"}
    ]},
    {"tested_on": "RAW264.7", "experiment": "Cytotoxicity against mouse RAW264.7 cells assessed as cell viability at 10 uM measured after 24 hrs by MTT assay", "assay_type": "cell-based", "settings": "raw264.7, 24 h", "values": [
      {"smiles": "C[N+]1(Cc2cccc(/N=N/c3ccccc3)c2)CCCCC1.[I-]", "Activity": "Non-Toxic"},
      {"smiles": "C[N+]1(Cc2cccc(/N=N/c3cccc(C[N+]4(C)CCCCC4)c3)c2)CCCCC1.[I-].[I-]", "Activity": "Non-Toxic"},
      {"smiles": "C[N+]1(Cc2cccc(/N=N/c3cccc(C[N+]4(C)CCCCCC4)c3)c2)CCCCCC1.[I-].[I-]", "Activity": "Non-Toxic"},
      {"smiles": "C[N+]1(Cc2cccc(/N=N/c3cccc(C[N+]4(C)CC=CCC4)c3)c2)CC=CCC1.[I-].[I-]", "note": "(configuration not stated)", "Activity": "Non-Toxic"}
    ]},
    {"tested_on": "Oocyte", "experiment": "(§1) Antagonist activity at rat alpha1beta1gamma1delta1 nAChR expressed in Xenopus laevis oocytes assessed as inhibition of ACh puff-induced maximum channel current amplitude at 0.1 to 5 uM measured at holding potential of -60 mV by two-electrode voltage clamp technique", "assay_type": "cell-based", "settings": "filed as antagonist, dose 0.1-5 µM", "values": [
      {"smiles": "C[N+]1(Cc2cccc(/N=N/c3cccc(C[N+]4(C)CCCCC4)c3)c2)CCCCC1.[I-].[I-]", "inhibition": "Active"}
    ]},
    {"species": "Homo sapiens", "experiment": "Selectivity index, ratio of Ki for human neuronal alpha4beta2 nAChR expressed in human SH-SY5Y cell membrane to Ki for human muscle type nAChR expressed in human TE-671 cell membrane", "assay_type": "cell-based", "settings": "not given", "values": [
      {"smiles": "C[N+]1(Cc2cccc(/N=N/c3cccc(C[N+]4(C)CCCCC4)c3)c2)CCCCC1.[I-].[I-]", "Ratio Ki": "> 290"}
    ]},
    {"tested_on": "not listed separately", "experiment": "Displacement of [125I] alpha bungarotoxin from human muscle type nAChR expressed in human TE-671 cell membrane measured after 120 mins by Topcount scintillation counting method", "assay_type": "cell membranes", "settings": "not given", "units": {"Ki": "nM"}, "values": [
      {"smiles": "C[N+]1(Cc2cccc(/N=N/c3ccccc3)c2)CCCCC1.[I-]", "Ki": "> 10000"},
      {"smiles": "C[N+]1(Cc2cccc(/N=N/c3cccc(C[N+]4(C)CCCCC4)c3)c2)CCCCC1.[I-].[I-]", "Ki": 35},
      {"smiles": "C[N+]1(Cc2cccc(/N=N/c3cccc(C[N+]4(C)CCCCCC4)c3)c2)CCCCCC1.[I-].[I-]", "Ki": 220},
      {"smiles": "C[N+]1(Cc2cccc(/N=N/c3cccc(C[N+]4(C)CC=CCC4)c3)c2)CC=CCC1.[I-].[I-]", "note": "(configuration not stated)", "Ki": 100}
    ]},
    {"tested_on": "Oocyte", "experiment": "Antagonist activity at rat alpha1beta1gamma1delta1 nAChR expressed in Xenopus laevis oocytes assessed as inhibition of constant UV LED light irradiation-induced channel activation by measuring faster decay of Ach-induced channel current amplitude at 0.5 uM using blue LED light irradiated compound measured at holding potential of -60 mV by two-electrode voltage clamp technique", "assay_type": "cell-based", "settings": "filed as antagonist", "values": [
      {"smiles": "C[N+]1(Cc2cccc(/N=N/c3cccc(C[N+]4(C)CCCCC4)c3)c2)CCCCC1.[I-].[I-]", "inhibition": "Active"}
    ]},
    {"tested_on": "Oocyte", "experiment": "as §1, with “at” for “at 0.1 to”, “measured following irradiation with UV LED light irradiation” for “measured”", "assay_type": "cell-based", "settings": "not given", "values": [
      {"smiles": "C[N+]1(Cc2cccc(/N=N/c3cccc(C[N+]4(C)CCCCC4)c3)c2)CCCCC1.[I-].[I-]", "inhibition": "inactive"}
    ]},
    {"tested_on": "Oocyte", "experiment": "Antagonist activity at rat alpha1beta1gamma1delta1 nAChR expressed in Xenopus laevis oocytes assessed as inhibition of ACh puff-induced maximum channel current amplitude at 5 uM measured at holding potential of -60 mV by two-electrode voltage clamp technique", "assay_type": "cell-based", "settings": "filed as antagonist", "values": [
      {"smiles": "C[N+]1(Cc2cccc(/N=N/c3cccc(C[N+]4(C)CCCCC4)c3)c2)CCCCC1.[I-].[I-]", "inhibition": "Active"}
    ]},
    {"biological_target": "T1, Neuronal acetylcholine receptor subunit alpha-7", "experiment": "Displacement of [125I] alpha bungarotoxin from human neuronal alpha7 nAChR expressed in human SH-SY5Y cell membrane at 10 uM measured after 120 mins by Topcount scintillation counting method", "assay_type": "cell membranes", "settings": "filed as antagonist", "units": {"inhibition": "%"}, "values": [
      {"smiles": "C[N+]1(Cc2cccc(/N=N/c3ccccc3)c2)CCCCC1.[I-]", "inhibition": 48}
    ]},
    {"tested_on": "not listed separately", "experiment": "Thermodynamic solubility of the compound in aqueous phosphate buffer at pH 7.4 measured after 24 hrs by UV-spectra reader analysis", "assay_type": "physicochemical", "settings": "read-out: Therm_solubility", "units": {"solubility thermodynamic at 24 h": "mM"}, "values": [
      {"smiles": "C[N+]1(Cc2cccc(/N=N/c3ccccc3)c2)CCCCC1.[I-]", "solubility thermodynamic at 24 h": 5.5},
      {"smiles": "C[N+]1(Cc2cccc(/N=N/c3cccc(C[N+]4(C)CCCCC4)c3)c2)CCCCC1.[I-].[I-]", "solubility thermodynamic at 24 h": 38.4},
      {"smiles": "C[N+]1(Cc2cccc(/N=N/c3cccc(C[N+]4(C)CCCCCC4)c3)c2)CCCCCC1.[I-].[I-]", "solubility thermodynamic at 24 h": 5.9},
      {"smiles": "C[N+]1(Cc2cccc(/N=N/c3cccc(C[N+]4(C)CC=CCC4)c3)c2)CC=CCC1.[I-].[I-]", "note": "(configuration not stated)", "solubility thermodynamic at 24 h": 16.3}
    ]},
    {"tested_on": "not listed separately", "experiment": "Effective permeability of compound measured after 240 mins by PAMPA-BBB assay based UV/Vis spectrophotometer analysis", "assay_type": "ADME", "settings": "read-out: Peff", "units": {"Papp at 4 h": "×10⁻⁶ cm/s"}, "values": [
      {"smiles": "C[N+]1(Cc2cccc(/N=N/c3ccccc3)c2)CCCCC1.[I-]", "Papp at 4 h": 2},
      {"smiles": "C[N+]1(Cc2cccc(/N=N/c3cccc(C[N+]4(C)CCCCC4)c3)c2)CCCCC1.[I-].[I-]", "Papp at 4 h": "< 1"},
      {"smiles": "C[N+]1(Cc2cccc(/N=N/c3cccc(C[N+]4(C)CCCCCC4)c3)c2)CCCCCC1.[I-].[I-]", "Papp at 4 h": "< 1"},
      {"smiles": "C[N+]1(Cc2cccc(/N=N/c3cccc(C[N+]4(C)CC=CCC4)c3)c2)CC=CCC1.[I-].[I-]", "note": "(configuration not stated)", "Papp at 4 h": "< 1"}
    ]},
    {"tested_on": "Oocyte", "experiment": "Antagonist activity at rat alpha1beta1gamma1delta1 nAChR expressed in Xenopus laevis oocytes assessed as inhibition of ACh puff-induced maximum channel current amplitude by measuring current fraction ratio measured at holding potential of -60 mV by two-electrode voltage clamp technique", "assay_type": "cell-based", "settings": "not given", "values": [
      {"smiles": "C[N+]1(Cc2cccc(/N=N/c3cccc(C[N+]4(C)CC=CCC4)c3)c2)CC=CCC1.[I-].[I-]", "note": "(configuration not stated)", "Ratio": 0.11}
    ]},
    {"biological_target": "T2, Neuronal acetylcholine receptor; alpha4/beta2", "experiment": "Displacement of [125I] alpha bungarotoxin from human neuronal alpha4beta2 nAChR expressed in human SH-SY5Y cell membrane at 10 uM measured after 120 mins by Topcount scintillation counting method", "assay_type": "cell membranes", "settings": "not given", "units": {"inhibition": "%"}, "values": [
      {"smiles": "C[N+]1(Cc2cccc(/N=N/c3ccccc3)c2)CCCCC1.[I-]", "inhibition": 39},
      {"smiles": "C[N+]1(Cc2cccc(/N=N/c3cccc(C[N+]4(C)CCCCC4)c3)c2)CCCCC1.[I-].[I-]", "inhibition": 7},
      {"smiles": "C[N+]1(Cc2cccc(/N=N/c3cccc(C[N+]4(C)CCCCCC4)c3)c2)CCCCCC1.[I-].[I-]", "inhibition": 29},
      {"smiles": "C[N+]1(Cc2cccc(/N=N/c3cccc(C[N+]4(C)CC=CCC4)c3)c2)CC=CCC1.[I-].[I-]", "note": "(configuration not stated)", "inhibition": 32}
    ]},
    {"tested_on": "TE-671", "experiment": "Displacement of [125I] alpha bungarotoxin from human muscle type nAChR expressed in human TE-671 cell membrane at 10 uM measured after 120 mins by Topcount scintillation counting method", "assay_type": "cell membranes", "settings": "filed as antagonist", "units": {"inhibition": "%"}, "values": [
      {"smiles": "C[N+]1(Cc2cccc(/N=N/c3ccccc3)c2)CCCCC1.[I-]", "inhibition": 45}
    ]},
    {"species": "Homo sapiens", "experiment": "Selectivity index, ratio of Ki for human neuronal alpha7 nAChR expressed in human SH-SY5Y cell membrane to Ki for human muscle type nAChR expressed in human TE-671 cell membrane", "assay_type": "cell-based", "settings": "not given", "values": [
      {"smiles": "C[N+]1(Cc2cccc(/N=N/c3cccc(C[N+]4(C)CCCCC4)c3)c2)CCCCC1.[I-].[I-]", "Ratio Ki": 26}
    ]},
    {"tested_on": "Oocyte", "experiment": "as §1, with “measured following irradiation with UV LED light irradiation” for “measured”", "assay_type": "cell-based", "settings": "dose 0.1-5 µM", "values": [
      {"smiles": "C[N+]1(Cc2cccc(/N=N/c3cccc(C[N+]4(C)CCCCC4)c3)c2)CCCCC1.[I-].[I-]", "inhibition": "inactive"}
    ]}
  ]
}
